# Values of other authors, collected in PMC3918212 (Biopolymers, 2013).
# Conditions: PBS at 37 °C
sequence,measurement,value
MATLEKLMKAFESLKSF [htt^NT],Aggregation behaviour on incubation,"slow, concentration dependent conversion into an α-helix rich, sedimentable oligomer"
